Assay results as given in patent US10450306B2, “Isoxazole analogs as FXR agonists and methods of use thereof” (Enanta Pharmaceuticals, Inc., priority 2016, dated 2019).
pEC50: −log10 of the molar value. Like-named read-outs stand apart in the source and are kept apart here.

Molecular target: T1, human FXR (NR1H4) (Homo sapiens, UniProt Q96RI1)
T1 construct: host or cells: CHO (Chinese hamster ovary) reporter cells
T1 sequence (Q96RI1 1-486): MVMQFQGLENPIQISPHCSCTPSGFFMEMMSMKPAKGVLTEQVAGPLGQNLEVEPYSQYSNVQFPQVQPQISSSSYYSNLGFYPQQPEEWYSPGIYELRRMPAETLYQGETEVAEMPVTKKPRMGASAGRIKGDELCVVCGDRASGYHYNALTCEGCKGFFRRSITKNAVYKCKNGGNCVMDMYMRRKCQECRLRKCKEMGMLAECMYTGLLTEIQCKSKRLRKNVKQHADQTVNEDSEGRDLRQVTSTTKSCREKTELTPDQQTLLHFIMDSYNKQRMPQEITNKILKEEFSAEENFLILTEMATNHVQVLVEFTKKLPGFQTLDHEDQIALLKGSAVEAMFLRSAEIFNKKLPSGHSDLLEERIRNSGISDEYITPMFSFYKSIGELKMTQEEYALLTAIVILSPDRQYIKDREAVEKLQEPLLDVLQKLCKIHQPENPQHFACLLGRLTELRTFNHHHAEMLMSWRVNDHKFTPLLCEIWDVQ
Assay: Human FXR (NR1H4) Assay: Gal4 promoter driven luciferase reporter transactivation in CHO cells (Indigo Bioscience kit IB00601); for Efficacy (%): efficacy normalized to CDCA set as 100%
Type: cell-based
From the text: Human FXR (NR1H4) Assay Determination of a ligand mediated Gal4 promoter driven transactivation to quantify ligand binding mediated activation of FXR. FXR Reporter Assay kit purchased from Indigo Bioscience (Catalogue number: IB00601) to determine the potency and efficacy of compound developed by Enanta that can induce FXR activation. The principle application of this reporter assay system is to quantify functional activity of human FXR. The assay utilizes non-human mammalian cells, CHO (Chinese hamster ovary) cells engineered to express human NR1H4 protein (referred to as FXR). Reporter cells also incorporate the cDNA encoding beetle luciferase which catalyzes the substrates and yields photon emission. Luminescence intensity of the reaction is quantified using a plate-reading luminometer, Envision. Reporter Cells include the luciferase reporter gene functionally linked to an FXR responsive promoter. Thus, quantifying changes in luciferase expression in the treated reporter cells provides a sensitive surrogate measure of the changes in FXR activity. […] The assay is according to the manufacturer's instructions. In brief, the assay was performed in white, 96 well plates using final volume of 100 ul containing cells with different doses of compounds. Retrieve Reporter Cells from −80° C. storage. Perform a rapid thaw of the frozen cells by transferring a 10 ml volume of 37° C. cell recovery medium into the tube of frozen cells. Recap the tube of Reporter Cells and immediately place it in a 37° C. water bath for 5-10 minutes. Retrieve the tube of Reporter Cell Suspension from the water bath. Sanitize the outside surface of the tube with a 70% alcohol swab, and then transfer it into the cell culture hood. Dispense 90 μl of cell suspension into each well of the 96-well Assay Plate. Transfer the plate into 37° C. incubator, allowing the cells adherent to the bottom of the well. Dilute compounds in Dilution Plate (DP), and administrate to cells at Assay Plate (AP). DMSO content of the samples was kept at 0.2%. Cells were incubated for additional 22 hours before luciferase activities were measured. Thirty minutes before intending to quantify FXR activity, remove Detection Substrate and Detection Buffer from the refrigerator and place them in a low-light area so that they may equilibrate to room temperature. Remove the plate's lid and discard all media contents by ejecting it into an appropriate waste container. Gently tap the inverted plate onto a clean absorbent paper towel to remove residual droplets. Cells will remain tightly adhered to well bottoms. Add 100 ul of luciferase detection reagent to each well of the assay plate. Allow the assay plate to rest at room temperature for at least 5 minutes following the addition of LDR. Set the instrument (Envision) to perform a single 5 second “plate shake” prior to reading the first assay well. Read time may be 0.5 second (500 mSec) per well.

[1] = Human FXR (NR1H4) reporter assay, potency ranges

Row | SMILES | Emax (CHO; read-out: Efficacy (%)) [%] | pEC50 [1] | Emax (CHO, read-out: Efficacy (%)) [%]
1 | CN(C)S(=O)(=O)NC(=O)c1ccc2nc(N3C4CCC3CC(NCc3c(-c5c(Cl)cccc5Cl)noc3C3CC3)C4)sc2c1 (single isomer, unassigned) [Example 225] | 126 | > 9.00 | 
2 | CC(C)(C)c1ccc(S(=O)(=O)NC(=O)c2ccc3nc(N4C5CCC4CC(NCc4c(-c6c(Cl)cccc6Cl)noc4C4CC4)C5)sc3c2)cc1 (single isomer, unassigned) [Example 262] | 289 | > 9.00 | 
3 | CCOC(=O)c1ccc2nc(N3[C@@H]4CC[C@H]3C[C@@H](NCc3c(-c5c(Cl)cccc5Cl)noc3C3CC3)C4)sc2c1 [Example 1, ethyl 2-((1R,3R,5S)-3-(((5-cyclopropyl-3-(2,6-dichlorophenyl)isoxazol-4-yl)methyl)amino)-8-azabicyclo[3.2.1]octan-8-yl)benzo[d]thiazole-6-carboxylate] | 74 | < 6.00 | 
4 | O=C(O)c1ccc2nc(N3[C@@H]4CC[C@H]3C[C@@H](NCc3c(-c5c(Cl)cccc5Cl)noc3C3CC3)C4)sc2c1 [Example 2, 2-((1R,3R,5S)-3-(((5-cyclopropyl-3-(2,6-dichlorophenyl)isoxazol-4-yl)methyl)amino)-8-azabicyclo[3.2.1]octan-8-yl)benzo[d]thiazole-6-carboxylic acid] | 244 | 7.00 to 9.00 | 
5 | COC(=O)c1cc(F)c2nc(N3C4CCC3CC(NCc3c(-c5c(Cl)cccc5Cl)noc3C3CC3)C4)sc2c1 (centres unmarked) [Example 3] | 137 | 7.00 to 9.00 | 
6 | O=C(O)c1cc(F)c2nc(N3[C@@H]4CC[C@H]3C[C@@H](NCc3c(-c5c(Cl)cccc5Cl)noc3C3CC3)C4)sc2c1 [Example 4, 2-((1R,3R,5S)-3-(((5-cyclopropyl-3-(2,6-dichlorophenyl)isoxazol-4-yl)methyl)amino)-8-azabicyclo[3.2.1]octan-8-yl)-4-fluorobenzo[d]thiazole-6-carboxylic acid] | 169 | > 9.00 | 
7 | COC(=O)c1cc(OC)c2nc(N3C4CCC3CC(NCc3c(-c5c(Cl)cccc5Cl)noc3C3CC3)C4)sc2c1 (centres unmarked) [Example 5] | 145 | 7.00 to 9.00 | 
8 | COc1cc(C(=O)O)cc2sc(N3C4CCC3CC(NCc3c(-c5c(Cl)cccc5Cl)noc3C3CC3)C4)nc12 (centres unmarked) [Example 6] | 153 | > 9.00 | 
9 | COC(=O)c1cc(C)c2nc(N3C4CCC3CC(NCc3c(-c5c(Cl)cccc5Cl)noc3C3CC3)C4)sc2c1 (centres unmarked) [Example 7] | 37 | 7.00 to 9.00 | 
10 | Cc1cc(C(=O)O)cc2sc(N3C4CCC3CC(NCc3c(-c5c(Cl)cccc5Cl)noc3C3CC3)C4)nc12 (centres unmarked) [Example 8] | 109 | > 9.00 | 
11 | COC(=O)c1ccc2nc(N3C4CCC3CC(NCc3c(-c5c(Cl)cccc5Cl)noc3C3CC3)C4)oc2c1 (centres unmarked) [Example 19] | 78 | 6.00 to 7.00 | 
12 | O=C(O)c1ccc2nc(N3C4CCC3CC(NCc3c(-c5c(Cl)cccc5Cl)noc3C3CC3)C4)oc2c1 (centres unmarked) [Example 20] | 56 | 7.00 to 9.00 | 
13 | COC(=O)c1ccc2cc(N3[C@@H]4CC[C@H]3C[C@@H](NCc3c(-c5c(Cl)cccc5Cl)noc3C3CC3)C4)ccc2c1 [Example 49, methyl 6-((1R,3R,5S)-3-(((5-cyclopropyl-3-(2,6-dichlorophenyl)isoxazol-4-yl)methyl)amino)-8-azabicyclo[3.2.1]octan-8-yl)-2-naphthoate] | 135 | 7.00 to 9.00 | 
14 | O=C(O)c1ccc2cc(N3C4CCC3CC(NCc3c(-c5c(Cl)cccc5Cl)noc3C3CC3)C4)ccc2c1 (centres unmarked) [Example 50] | 186 | > 9.00 | 
15 | COC(=O)c1ccc2nc(N3C4CCC3CC(NCc3c(-c5c(Cl)cccc5Cl)noc3C3CC3)C4)cnc2c1 (centres unmarked) [Example 64] | 40 | 7.00 to 9.00 | 
16 | CC(C)(C)OC(=O)CNC(=O)c1cc(F)c2nc(N3C4CCC3CC(NCc3c(-c5c(Cl)cccc5Cl)noc3C3CC3)C4)sc2c1 [Example 95, tert-butyl (2-((1R,3r,5S)-3-(((5-cyclopropyl-3-(2,6-dichlorophenyl)isoxazol-4-yl)methyl)amino)-8-azabicyclo[3.2.1]octan-8-yl)-4-fluorobenzo[d]thiazole-6-carbonyl)glycinate] | 128 | 7.00 to 9.00 | 
17 | O=C(O)CNC(=O)c1cc(F)c2nc(N3C4CCC3CC(NCc3c(-c5c(Cl)cccc5Cl)noc3C3CC3)C4)sc2c1 (centres unmarked) [Example 96] | 136 | 7.00 to 9.00 | 

Row | SMILES | Emax (CHO; read-out: Efficacy (%)) [%] | pEC50 [1] | Emax (CHO, read-out: Efficacy (%)) [%]
18 | O=C(O)c1ccc(N2C3CCC2CC(NCc2c(-c4c(Cl)cccc4Cl)noc2C2CC2)C3)c(F)c1 [Example 122, 4-((1R,3r,5S)-3-(((5-cyclopropyl-3-(2,6-dichlorophenyl)isoxazol-4-yl)methyl)amino)-8-azabicyclo[3.2.1]octan-8-yl)-3-fluorobenzoic acid] | 90 | 7.00 to 9.00 | 
19 | O=C(O)c1ccc(N2C3CCC2CC(NCc2c(-c4c(Cl)cccc4Cl)noc2C2CC2)C3)nc1 (centres unmarked) [Example 125] | 86.5 | 7.00 to 9.00 | 
20 | Fc1cc(-c2nn[nH]n2)ccc1N1C2CCC1CC(NCc1c(-c3c(Cl)cccc3Cl)noc1C1CC1)C2 (centres unmarked) [Example 138] | 155 | > 9.00 | 
21 | CC(C)(C)Oc1ccc(S(=O)(=O)NC(=O)OCc2ccc3nc(N4C5CCC4CC(NCc4c(-c6c(Cl)cccc6Cl)noc4C4CC4)C5)sc3c2)cc1 (centres unmarked) [Example 153] | 113 | 7.00 to 9.00 | 
22 | CCOC(=O)c1ccc2nc(N3[C@@H]4CC[C@H]3C[C@@H](N(C)Cc3c(-c5c(Cl)cccc5Cl)noc3C3CC3)C4)sc2c1 [Example 165, ethyl 2-((1R,3R,5S)-3-(((5-cyclopropyl-3-(2,6-dichlorophenyl)isoxazol-4-yl)methyl)(methyl)amino)-8-azabicyclo[3.2.1]octan-8-yl)benzo[d]thiazole-6-carboxylate] | 236 | 7.00 to 9.00 | 
23 | CCOC(=O)c1ccc2nc(N(C)C3CCC(OCc4c(-c5c(Cl)cccc5Cl)noc4C4CC4)CC3)sc2c1 (centres unmarked) [Example 169] | 38 | < 6.00 | 
24 | CN(c1nc2ccc(C(=O)O)cc2s1)C1CCC(OCc2c(-c3c(Cl)cccc3Cl)noc2C2CC2)CC1 (centres unmarked) [Example 170] | 105 | 6.00 to 7.00 | 
25 | O=C(O)c1ccc2nc(N3CCN(Cc4c(-c5c(Cl)cccc5Cl)noc4C4CC4)CC3)sc2c1 [Example 172] | 257 | 6.00 to 7.00 | 
26 | CCOC(=O)c1ccc2nc(N3CCC(NCc4c(-c5c(Cl)cccc5Cl)noc4C4CC4)CC3)sc2c1 [Example 173] | 116 | < 6.00 | 
27 | O=C(O)c1ccc2nc(N3CCC(NCc4c(-c5c(Cl)cccc5Cl)noc4C4CC4)CC3)sc2c1 [Example 174] | 132 | 7.00 to 9.00 | 
28 | O=C(O)c1ccc2nc(N3C4CCC3CN(Cc3c(-c5c(Cl)cccc5Cl)noc3C3CC3)C4)sc2c1 [Example 176] | 228 | 6.00 to 7.00 | 
29 | O=C(O)c1ccc2nc(N3[C@@H]4CC[C@H]3C[C@H](NCc3c(-c5c(Cl)cccc5Cl)noc3C3CC3)C4)sc2c1 [Example 178] | 108 | < 6.00 | 
30 | COC(=O)c1ccc2nc(N3C4CCC3CC(N(C)Cc3c(-c5c(Cl)cccc5Cl)noc3C3CC3)C4)sc2c1 (centres unmarked) [Example 179] | 148 | 6.00 to 7.00 | 
31 | CCOC(=O)c1ccc2nc(NC3CCN(Cc4c(-c5c(Cl)cccc5Cl)noc4C4CC4)CC3)sc2c1 [Example 183] | 119 | < 6.00 | 
32 | CN(Cc1c(-c2c(Cl)cccc2Cl)noc1C1CC1)C1CCN(c2nc3ccc(C(=O)O)cc3s2)CC1 [Example 186] | 45 | < 6.00 | 
33 | COC(=O)c1cccc(N2CCN(Cc3c(-c4c(Cl)cccc4Cl)noc3C3CC3)CC2)c1 [Example 187] |  | < 6.00 | 64
34 | O=C(O)c1cccc(N2CCN(Cc3c(-c4c(Cl)cccc4Cl)noc3C3CC3)CC2)c1 [Example 188] | 15 | < 6.00 | 
